*1 amine or outer side, *2 acyl side, *3 side chain or, on linkers, in order; H or OH if unused. Where a SMILES comes first, the peptide text is derived from it. Bridges are numbered along the chain shown (N, C = ends). [ ]: non-standard residue; d: D form. 2Nal = N[C@@H](Cc1ccc2ccccc2c1)C(=O)O; AEF = NCCOc1ccc(C[C@H](N)C(=O)O)cc1; X1 = O=C(Cc1ccc(CN[*:1])cc1)[*:2]; 3Pal = N[C@@H](Cc1cccnc1)C(=O)O; αMeL = CC(C)C[C@](C)(N)C(=O)O; Dab = NCC[C@H](N)C(=O)O
What was measured:
human IL-23R = target: T1, human IL-23R (Homo sapiens, UniProt Q5VWK5); test: Binding assay: displacement of fluorophore (TAMRA)-labelled reference compound from human IL-23R (BRET, Nluc-IL23R fusion protein membranes); settings: for Emax: read-out: % displacement (hIL-23R binding)
T1 construct: Nanoluc luciferase (Nluc); secretion signal encoded by the plasmid (not specified); expressed in transfected cells; crude membranes used in the assay
T1 sequence (Q5VWK5 22-629): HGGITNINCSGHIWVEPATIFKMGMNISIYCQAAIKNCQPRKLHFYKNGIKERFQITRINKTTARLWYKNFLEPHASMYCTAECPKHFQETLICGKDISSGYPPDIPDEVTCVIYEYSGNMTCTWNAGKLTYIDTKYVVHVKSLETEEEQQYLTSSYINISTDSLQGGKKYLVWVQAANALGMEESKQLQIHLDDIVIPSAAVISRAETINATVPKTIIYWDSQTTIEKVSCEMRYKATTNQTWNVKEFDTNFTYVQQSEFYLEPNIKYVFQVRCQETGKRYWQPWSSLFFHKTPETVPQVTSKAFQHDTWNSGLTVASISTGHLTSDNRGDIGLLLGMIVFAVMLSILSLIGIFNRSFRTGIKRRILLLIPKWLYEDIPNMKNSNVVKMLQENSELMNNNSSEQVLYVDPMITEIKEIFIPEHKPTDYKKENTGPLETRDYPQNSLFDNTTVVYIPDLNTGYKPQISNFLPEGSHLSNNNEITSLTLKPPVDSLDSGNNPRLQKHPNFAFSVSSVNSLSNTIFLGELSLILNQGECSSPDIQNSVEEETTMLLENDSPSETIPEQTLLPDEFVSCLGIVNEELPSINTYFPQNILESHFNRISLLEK

[1] = Peptide stability in simulated intestinal fluid (SIF); format: in vitro ADME; settings: pig, simulated intestinal fluid, SIF, pH 6.8, pancreatin, 37° C., 10 μM; for remaining at 4 h, 10 µM: read-out: SIF (% remaining 4 h)
Method: (§1) SGF and SIF were prepared based on the United States Pharmacopeia specifications (Test Solutions, United States Pharmacopeia 35, NF 30, 2012). SGF was prepared by dissolving sodium chloride (0.2 g) in 50 mL of water. A volume of 0.7 mL of 10 M HCl was added to adjust the pH of the solution to 1.2 and the volume made up to 100 mL with water. 64 mg porcine pepsin (P7125, Sigma Aldrich) was gently dissolved into 20 mL preheated (37° C.) solution (3.2 g/L) immediately prior to the incubation. SIF was prepared by dissolving monobasic potassium phosphate (0.68 g) in 50 mL of water and adjusting the pH to 6.8 with 1 M NaOH. The volume was subsequently made up to 100 mL with water. 200 mg porcine pancreatin (P1625, Sigma Aldrich) was gently dissolved into 20 mL preheated (37° C.) solution (10 g/L) immediately prior to the incubation.
(§2) To initiate the incubations, 20 μL of peptide stock solution in 50% v/v isopropanol was deposited at the bottom of a well plate and 580 μL matrix solution was added to give a final substrate concentration of 10 μM. The incubation was performed at 37° C. with gentle shaking. 70 μL aliquots were removed at 0, 1 and 4 hours and quenched into 210 μL ice-cold precipitant solution (95% v/v acetonitrile with 0.1% v/v formic acid). After the last timepoint, the sampling plate was mixed for 10 min on a shaking table and centrifuged 10 min at 2200 g. 70 μL resulting supernatant was diluted with 150 μL water, mixed and centrifugated before analysis by liquid chromatography high resolution mass spectrometry. The zero sample was reinjected after the 4-hour sample to confirm that no drift in instrument sensitivity had occurred during the run. Percent remaining at each timepoint was calculated relative to timepoint zero based on absolute peak areas.
(§3) Compounds with a SIF stability (after 4 h) above 70% are considered highly SIF stable. Compounds with a SIF stability (after 4 h) between 30-70% (including 30% and 70%) are considered moderately SIF stable. Compounds with a SIF stability (after 4 h) below 30% are considered SIF unstable. SIF stability values above 100% are due to assay uncertainty and indicate the compound has not degraded.

[2] = Peptide stability in simulated gastric fluid (SGF); format: in vitro ADME; settings: pig, pH 1.2, pepsin, 37° C.
Method: as §1, §2
as §3, with “SGF” for “SIF”

[3] = test system: IL-23 mediated STAT3 signalling (DB cells); test: Functional inhibition of IL-23 mediated STAT3 signalling (phospho-STAT3 Tyr705) in DB cells; format: cell-based, human; settings: for IC50: Table 3-2, EC80 of hIL-23, read-out: hIL-23 (pSTAT3) antagonist IC50; for hIL-23 (pSTAT3) antagonist % inhibition: Table 3-2, maximal inhibitory response, EC80 of hIL-23
Summary of the method: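 Phospho-STAT3 in lysed DB cells quantified by MSD kit after 90 min exposure to EC80 human IL-23, following 15 min compound pretreatment (37° C, 5% CO2). IC50 and maximal inhibition derived from curves normalized between IL-23-only and buffer-only controls.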

| Compound | Emax (human IL-23R) | remaining at 1 h, 10 µM [1] | remaining at 1 h, 10 µM [2] | remaining at 4 h, 10 µM [2] | IC50 [3] | IC50 (human IL-23R) | remaining at 4 h, 10 µM [1] | hIL-23 (pSTAT3) antagonist % inhibition [3] |
| --- | --- | --- | --- | --- | --- | --- | --- | --- |
| CNC(=O)[C@H](Cc1cccnc1)NC(=O)[C@H](CCN)NC(=O)[C@@H]1CCC(=O)NCc2ccc(cc2)CC(=O)N[C@@H](CO)C(=O)N[C@H]2CCC(=O)NCC[C@H](NC(=O)[C@H](CCC(=O)N(C)C)NC(=O)[C@H](Cc3c[nH]c4ccccc34)NC2=O)C(=O)N[C@@H](Cc2ccc(OCCN)cc2)C(=O)N[C@@H](Cc2ccc3ccccc3c2)C(=O)N[C@@](C)(CC(C)C)C(=O)N1 [Compound 30, [4-Aminomethyl-phenylacetyl](1c)*SE(2c)W[Q(2Me)][Dab](2c)[Y(2-aminoethoxy)][2-Nal][2-Me-Leu]E(1c)[Dab][3-(3-Pyridyl)-Ala]-[NHMe]] ([X1]SEWE(NMe2)[Dab][AEF][2Nal][αMeL]E[Dab][3Pal]-NHMe; lactam 3-6, N-10) | 104% | 94% | 92% | 89% | 0.077 nM | – | – | 103% |
| CNC(=O)[C@H](Cc1cccnc1)NC(=O)C1(NC(=O)[C@@H]2CCC(=O)NCc3ccc(cc3)CC(=O)N[C@@H](CO)C(=O)N[C@H]3CCC(=O)NCC[C@H](NC(=O)[C@H](CCC(N)=O)NC(=O)[C@H](Cc4c[nH]c5ccccc45)NC3=O)C(=O)N[C@@H](Cc3ccc(OCCN)cc3)C(=O)N[C@@H](Cc3ccc4ccccc4c3)C(=O)N[C@@](C)(CC(C)C)C(=O)N2)CCOCC1 [Compound 35, [4-Aminomethyl-phenylacetyl](1c)*SE(2c)WQ[Dab](2c)[Y(2-aminoethoxy)][2-Nal][2-Me-Leu]E(1c)[THP][3-(3-Pyridyl)-Ala]-[NHMe]] | 101% | – | 101% | – | – | 0.039 nM | 96% | – |
| CNC(=O)[C@H](Cc1cccnc1)NC(=O)[C@H](CO)NC(=O)[C@@H]1CCC(=O)NCc2ccc(cc2)CC(=O)N[C@@H](CO)C(=O)N[C@H]2CCC(=O)NCC[C@H](NC(=O)[C@H](CCC(N)=O)NC(=O)[C@H](Cc3c[nH]c4ccccc34)NC2=O)C(=O)N[C@@H](Cc2ccc(OCCN)cc2)C(=O)N[C@@H](Cc2ccc3ccccc3c2)C(=O)N[C@@](C)(CC(C)C)C(=O)N1 [Compound 31, [4-Aminomethyl-phenylacetyl](1c)*SE(2c)WQ[Dab](2c)[Y(2-aminoethoxy)][2-Nal][2-Me-Leu]E(1c)S[3-(3-Pyridyl)-Ala]-[NHMe]] ([X1]SEWQ[Dab][AEF][2Nal][αMeL]ES[3Pal]-NHMe; lactam 3-6, N-10) | 97% | 77% | 101% | 99% | 0.06 nM | – | – | 101% |
| CNC(=O)[C@H](Cc1cccnc1)NC(=O)[C@H](CCN)NC(=O)[C@@H]1CCC(=O)NCc2ccc(cc2)CC(=O)N[C@@H](CO)C(=O)N[C@H]2CCC(=O)NCC[C@H](NC(=O)[C@H](CCCCNC(C)=O)NC(=O)[C@H](Cc3c[nH]c4ccccc34)NC2=O)C(=O)N[C@@H](Cc2ccc(OCCN)cc2)C(=O)N[C@@H](Cc2ccc3ccccc3c2)C(=O)N[C@@](C)(CC(C)C)C(=O)N1 [Compound 24, [4-Aminomethyl-phenylacetyl](1c)*SE(2c)W[K(Ac)][Dab](2c)[Y(2-aminoethoxy)][2-Nal][2-Me-Leu]E(1c)[Dab][3-(3-Pyridyl)-Ala]-[NHMe]] ([X1]SEWK(Ac)[Dab][AEF][2Nal][αMeL]E[Dab][3Pal]-NHMe; lactam 3-6, N-10) | 97% | 91% | 93% | 90% | 0.058 nM | – | 89% | 98% |
| CCCC[C@H](NC(=O)[C@@H]1CCC(=O)NCc2ccc(cc2)CC(=O)N[C@@H](CO)C(=O)N[C@H]2CCC(=O)NCC[C@H](NC(=O)[C@H](CCC(N)=O)NC(=O)[C@H](Cc3c[nH]c4ccccc34)NC2=O)C(=O)N[C@@H](Cc2ccc(OCCN)cc2)C(=O)N[C@@H](Cc2ccc3ccccc3c2)C(=O)N[C@@](C)(CC(C)C)C(=O)N1)C(=O)N[C@@H](Cc1cccnc1)C(=O)NC [Compound 32, [4-Aminomethyl-phenylacetyl](1c)*SE(2c)WQ[Dab](2c)[Y(2-aminoethoxy)][2-Nal][2-Me-Leu]E(1c)[Nle][3-(3-Pyridyl)-Ala]-[NHMe]] | 98% | 94% | – | 90% | – | – | – | – |

The next lines start with results.

| Emax (human IL-23R) | remaining at 1 h, 10 µM [1] | remaining at 1 h, 10 µM [2] | remaining at 4 h, 10 µM [2] | IC50 [3] | IC50 (human IL-23R) | remaining at 4 h, 10 µM [1] | Compound | hIL-23 (pSTAT3) antagonist % inhibition [3] |
| --- | --- | --- | --- | --- | --- | --- | --- | --- |
| 100% | 93% | – | 89% | – | – | – | CNC(=O)[C@H](Cc1cccnc1)NC(=O)[C@H](CO)NC(=O)[C@@H]1CCC(=O)NCc2ccc(cc2)CC(=O)N[C@@H](C)C(=O)N[C@H]2CCC(=O)NCC[C@H](NC(=O)[C@H](CCC(N)=O)NC(=O)[C@H](Cc3c[nH]c4ccccc34)NC2=O)C(=O)N[C@@H](Cc2ccc(OCCN)cc2)C(=O)N[C@@H](Cc2ccc3ccccc3c2)C(=O)N[C@@](C)(CC(C)C)C(=O)N1 [Compound 40, [4-Aminomethyl-phenylacetyl](1c)*AE(2c)WQ[Dab](2c)[Y(2-aminoethoxy)][2-Nal][2-Me-Leu]E(1c)S[3-(3-Pyridyl)-Ala]-[NHMe]] ([X1]AEWQ[Dab][AEF][2Nal][αMeL]ES[3Pal]-NHMe; lactam 3-6, N-10) | – |
| – | – | – | 96% | 0.51 nM | 0.024 nM | 85% | CNC(=O)[C@H](Cc1cccnc1)NC(=O)[C@](C)(CO)NC(=O)[C@@H]1CCC(=O)NCc2ccc(cc2)CC(=O)N[C@@H](CO)C(=O)N[C@H]2CCC(=O)NCC[C@H](NC(=O)[C@H](CCC(N)=O)NC(=O)[C@H](Cc3c[nH]c4ccccc34)NC2=O)C(=O)N[C@@H](Cc2ccc(OCCN)cc2)C(=O)N[C@@H](Cc2ccc3ccccc3c2)C(=O)N[C@@](C)(CC(C)C)C(=O)N1 [Compound 39, [4-Aminomethyl-phenylacetyl](1c)*SE(2c)WQ[Dab](2c)[Y(2-aminoethoxy)][2-Nal][2-Me-Leu]E(1c)[2-Me-Ser][3-(3-Pyridyl)-Ala]-[NHMe]] | 101% |
| – | 97% | 103% | 85% | 0.33 nM | 0.069 nM | 92% | CNC(=O)[C@H](Cc1cccnc1)NC(=O)[C@H](CCN)NC(=O)[C@@H]1CCC(=O)NCc2ccc(cc2)CC(=O)N[C@@H](C)C(=O)N[C@H]2CCC(=O)NCC[C@H](NC(=O)[C@H](CCC(N)=O)NC(=O)[C@H](Cc3c[nH]c4ccccc34)NC2=O)C(=O)N[C@@H](Cc2c[nH]c3c(F)cccc23)C(=O)N[C@@H](Cc2ccc3ccccc3c2)C(=O)NC(C)(C)C(=O)N1 [Compound 47, [4-Aminomethyl-phenylacetyl](1c)*AE(2c)WQ[Dab](2c)[7-F-Trp][2-Nal][Aib]E(1c)[Dab][3-(3-Pyridyl)-Ala]-[NHMe]] | 98% |
